Test results published in patent US4412994A, “Mannich-base hydroxamic acid prodrugs, compositions and use” (INTERx Research Corporation, priority 1982, dated 1983).

These compounds were tested on mouse ear (assay: mouse ear assay (croton oil-induced ear inflammation, anti-inflammatory activity)). Conditions: topical, 0.05 ml in acetone containing 2% croton oil on right ear; 3 hours; linear regression of data at 2×10^-2, 4×10^-2 and 8×10^-2 M; groups of 15 mice.
Format: in vivo, male ddY strain mouse
Procedure: G. Van Arman, Clin. Pharm. […] Details of the mouse ear assay are as follows:
The test animal was the male ddY strain mouse (20-25 grams each). Solutions of the test compound in acetone containing 2% croton oil (i.e. a solution containing 98 parts of acetone to 2 parts of croton oil) were prepared for varying concentrations of the test compound. Then, the test animals were anesthetized and 0.05 ml of the selected test solution was applied in 0.025 ml aliquots, one each to the anterior and posterior surface of the right ear of each mouse. Three hours after application, the mice were sacrificed via ether inhalation and both ears were removed from each mouse. Then, one circular section, 8 mm in diameter, was taken from each ear using a leather punch. The increase in weight caused by the irritant was determined by subtracting the weight of the untreated left ear section from that of the right ear section. Drug effects expressed as percent inhibition were determined at each selected concentration (molarity) of each test compound according to the following equation: [formula]
Groups of 15 mice were treated at each dosage level of each test compound. The control group consisted of 30 mice. In the control group, the right ear of each mouse was treated with the croton oil/acetone solution described above but not containing test compound, while the left ear of each control mouse was untreated.
Indomethacin, indomethacin hydroxamic acid and the compounds of Examples 3, 4 and 5 were tested according to the mouse ear assay described above.
For `COc1ccc2c(c1)c(CC(=O)NO)c(C)n2C(=O)c1ccc(Cl)cc1` [Indomethacin hydroxamic acid, α-[1-(4'-Chlorobenzoyl)-5-methoxy-2-methylindol-3-yl]acetohydroxamicAcid], the ED50 was 0.096 M.
`COc1ccc2c(c1)c(CC(=O)O)c(C)n2C(=O)c1ccc(Cl)cc1` [Indomethacin, 1-(4'-Chlorobenzoyl)-5-methoxy-2-methyl-3-indolylacetic Acid, reference compound] showed an ED50 of 0.061 M.
For `CCN(CC)CN(O)C(=O)Cc1c(C)n(C(=O)c2ccc(Cl)cc2)c2ccc(OC)cc12` [α-[1-(4'-Chlorobenzoyl)-5-methoxy-2-methylindol-3-yl]-N-(N', N'-diethylaminomethyl)acetohydroxamic Acid], the ED50 was 0.041 M.
`COc1ccc2c(c1)c(CC(=O)N(O)CN1CCOCC1)c(C)n2C(=O)c1ccc(Cl)cc1` [α-[1-(4'-Chlorobenzoyl)-5-methoxy-2-methylindol-3-yl]-N-(morpholinomethyl)acetohydroxamic Acid] was tested, and the ED50 was 0.054 M.
For `COc1ccc2c(c1)c(CC(=O)N(O)CN1CCN(C)CC1)c(C)n2C(=O)c1ccc(Cl)cc1` [α-[1-(4'-Chlorobenzoyl)-5-methoxy-2-methylindol-3-yl]-N-[(4-methylpiperazin-1-yl)methyl]acetohydroxamic Acid], the ED50 was 0.027 M.
